BindingDB's records for doi:10.7270/Q2057DDB (Nmmlsc, 2011)

Biological target: T1, Vacuolar aminopeptidase 1 (Saccharomyces cerevisiae (strain ATCC 204508 / S288c), UniProt P14904)
T1 sequence (P14904 whole entry): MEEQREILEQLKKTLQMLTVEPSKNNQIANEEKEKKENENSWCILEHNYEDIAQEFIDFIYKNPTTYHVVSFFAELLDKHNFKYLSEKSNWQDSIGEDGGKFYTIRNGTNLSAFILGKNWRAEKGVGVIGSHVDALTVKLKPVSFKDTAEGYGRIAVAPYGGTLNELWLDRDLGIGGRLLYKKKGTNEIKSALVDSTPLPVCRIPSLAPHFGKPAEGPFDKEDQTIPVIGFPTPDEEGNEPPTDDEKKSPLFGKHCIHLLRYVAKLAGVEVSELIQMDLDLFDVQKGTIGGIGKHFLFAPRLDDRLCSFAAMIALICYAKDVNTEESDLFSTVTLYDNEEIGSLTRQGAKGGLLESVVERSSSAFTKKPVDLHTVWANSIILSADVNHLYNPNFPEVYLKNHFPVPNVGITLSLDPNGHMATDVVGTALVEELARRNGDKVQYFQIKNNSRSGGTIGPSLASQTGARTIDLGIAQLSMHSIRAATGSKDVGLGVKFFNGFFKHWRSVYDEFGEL
Assay: yeast LAP4 reporter analogs, concentration series – cell-based, cherry pick 3, flow cytometry, SAR follow-up (AID 488823)
Conditions: not given

Work on NC(=O)c1ccnc2c(O)cccc12 [8-hydroxyquinoline-4-carboxamide;2,2,2-trifluoroacetic acid] yielded an EC50 of 35.4 µM.

Same assay, conditions: inactive by the depositor's call

First: CCOC(=O)CS(=O)(=O)c1nc(-c2ccccc2)cc(C(F)(F)F)n1 [2-[4-phenyl-6-(trifluoromethyl)pyrimidin-2-yl]sulfonylacetic acid ethyl ester]
Second: CCc1sc(C(=O)Nc2nc(-c3ccccn3)cs2)cc1C [SMR001314827]
The EC50 of the first is 2.5-fold lower: 41.2 µM for the first, 105 µM for the second.

Compared with COc1cccc2c(Cl)c(CCCl)c(C)nc12 [MLS000720591], CCC(C)Nc1nc(N)c([N+](=O)[O-])c(Nc2ccccc2OC)n1 (stereo not drawn) [SMR000434817] is 2.4-fold lower in EC50: 86.4 µM for the first, 35.9 µM for the second.

Compared with Oc1ccc(Cl)c2cccnc12 [MLS002695956], Cn1cccc1C(=O)Nc1nc(-c2ccccn2)cs1 [SMR000064459] is 2.6-fold lower in EC50: 208 µM for the first, 79.6 µM for the second. The second is the more potent here.

CCC(C)Nc1nc(N)c([N+](=O)[O-])c(Nc2cc(OC)ccc2OC)n1 (stereo not drawn) [N2-butan-2-yl-N4-(2,5-dimethoxyphenyl)-5-nitro-pyrimidine-2,4,6-triamine] was tested, and the EC50 was 37.3 µM.
